# What was measured:
# Assay in all cases: GRmax, 72 h; higher = less effect;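 also: breast cell lines in 384-well plates, nine doses across a 10^4 range, Dye Drop imaging of viable cells vs DMSO and time-zero plates, GR 0 means no net growth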
# UACC812 = tested on: UACC812
# HCC1954 = tested on: HCC1954
# MDAMB468 = tested on: MDAMB468
# CAL51 = tested on: CAL51
# ZR7530 = tested on: ZR7530
# MDAMB436 = tested on: MDAMB436
# HCC38 = tested on: HCC38
# SKBR3 = tested on: SKBR3
# MCF12A = tested on: MCF12A
# HCC1187 = tested on: HCC1187
# HS578T = tested on: HS578T
# EFM19 = tested on: EFM19
SMILES,"GRmax, 72 h (UACC812)","GRmax, 72 h (HCC1954)","GRmax, 72 h (MDAMB468)","GRmax, 72 h (CAL51)","GRmax, 72 h (ZR7530)","GRmax, 72 h (MDAMB436)","GRmax, 72 h (HCC38)","GRmax, 72 h (SKBR3)","GRmax, 72 h (MCF12A)","GRmax, 72 h (HCC1187)","GRmax, 72 h (HS578T)","GRmax, 72 h (EFM19)"
CO[C@@H](C)Cn1c(=O)n(C)c2cnc3ccc(-c4cncc(C(C)(C)O)c4)cc3c21 (max 10 µM),-0.663 GR,-0.346 GR,-0.211 GR,-0.159 GR,-0.36 GR,0.323 GR,-0.0301 GR,-0.502 GR,0.133 GR,-0.718 GR,0.0776 GR,-0.255 GR
COc1cccc2c1C(=O)c1c(O)c3c(c(O)c1C2=O)C[C@@](O)(C(=O)CO)C[C@@H]3O[C@H]1C[C@H](N)[C@H](O)[C@H](C)O1 [Doxorubicin] (max 3.162 µM),-0.919 GR,-0.338 GR,-0.339 GR,-0.48 GR,-0.274 GR,-0.129 GR,-0.406 GR,-0.616 GR,-0.138 GR,-0.83 GR,-0.347 GR,-0.18 GR
CC(=O)c1c(C)c2cnc(Nc3ccc(N4CCNCC4)cn3)nc2n(C2CCCC2)c1=O (max 3.162 µM),-0.142 GR,0.526 GR,1.05 GR,0.361 GR,0.266 GR,1.06 GR,0.147 GR,0.35 GR,0.684 GR,0.646 GR,0.305 GR,0.308 GR
Cc1nn(C)c(COc2ccc(N3CCN(S(=O)(=O)N(C)C)CC3)cc2)c1-c1cccc2c(CCCOc3cccc4ccccc34)c(C(=O)O)n(CCN3CCOCC3)c12 (max 10 µM),0.991 GR,0.884 GR,0.93 GR,0.992 GR,0.576 GR,0.873 GR,0.887 GR,0.627 GR,0.993 GR,0.863 GR,0.942 GR,1 GR
CN(C)C/C=C/C(=O)Nc1ccc(C(=O)Nc2cccc(Nc3cc(-c4c[nH]c5ccccc45)ncn3)c2)cc1 [THZ-P1-2] (max 10 µM),-0.371 GR,-0.649 GR,-0.523 GR,0.751 GR,-0.964 GR,-0.278 GR,-0.509 GR,-0.777 GR,0.364 GR,0.283 GR,0.92 GR,0.124 GR
CN1CCN(CCOc2cc(OC3CCOCC3)c3c(Nc4c(Cl)ccc5c4OCO5)ncnc3c2)CC1 [Saracatinib/AZD0530] (max 10 µM),-0.847 GR,0.0936 GR,0.178 GR,0.258 GR,-0.159 GR,0.724 GR,0.614 GR,0.279 GR,0.414 GR,0.15 GR,0.189 GR,0.139 GR
CC(C)Nc1cc(-c2c[nH]c(C(=O)N[C@H](CO)c3cccc(Cl)c3)c2)c(Cl)cn1 [BVD523] (max 10 µM),0.176 GR,0.264 GR,0.402 GR,0.759 GR,0.562 GR,0.649 GR,0.371 GR,0.34 GR,0.104 GR,0.649 GR,0.259 GR,0.798 GR
Cc1cc(Nc2ncc(Cl)c(Nc3ccccc3S(=O)(=O)C(C)C)n2)c(OC(C)C)cc1C1CCNCC1 [Ceritinib/LDK378] (max 10 µM),-0.983 GR,-0.445 GR,-0.742 GR,-0.476 GR,0.416 GR,-0.697 GR,-0.404 GR,-0.825 GR,0.172 GR,0.121 GR,-0.436 GR,-0.258 GR
NC1(C(=O)N[C@@H](CCO)c2ccc(Cl)cc2)CCN(c2nc[nH]c3nccc2-3)CC1 [AZD5363] (max 10 µM),0.485 GR,0.272 GR,0.545 GR,0.565 GR,0.187 GR,0.728 GR,0.731 GR,0.138 GR,0.617 GR,0.426 GR,0.349 GR,0.23 GR
CN(C)CC[C@H](CSc1ccccc1)Nc1ccc(S(=O)(=O)NC(=O)c2ccc(N3CCN(Cc4ccccc4-c4ccc(Cl)cc4)CC3)cc2)cc1[N+](=O)[O-] [ABT-737] (max 10 µM),0.329 GR,0.496 GR,0.142 GR,0.876 GR,0.552 GR,0.815 GR,-0.421 GR,0.947 GR,0.979 GR,0.492 GR,0.775 GR,0.475 GR
O=C1NC(=NCc2cccs2)SC1=Cc1ccc2ncccc2c1 [R0-3306] (max 10 µM),-0.171 GR,-0.0775 GR,-0.271 GR,0.232 GR,0.065 GR,0.0289 GR,-0.239 GR,-0.0433 GR,0.458 GR,-0.648 GR,-0.0503 GR,0.0987 GR
NC(=O)Nc1cc(-c2cccc(F)c2)sc1C(=O)N[C@H]1CCCNC1 [AZD7762] (max 10 µM),-0.8 GR,-0.398 GR,-0.586 GR,-0.519 GR,0.0949 GR,-0.281 GR,-0.334 GR,-0.451 GR,-0.211 GR,-0.691 GR,-0.598 GR,-0.149 GR
CC(=O)c1c(C)c2cnc(Nc3ccc(N4CCN(CCOCCOCCOCCNC(=O)COc5cccc6c5C(=O)N(C5CCC(=O)NC5=O)C6=O)CC4)cn3)nc2n(C2CCCC2)c1=O (stereo not drawn) [BSJ-03-123] (max 10 µM),-0.312 GR,0.0033 GR,-0.0298 GR,0.146 GR,-0.258 GR,-0.0126 GR,-0.0999 GR,-0.347 GR,0.129 GR,-0.518 GR,-0.263 GR,0.156 GR
CC(C)NC[C@@H](C(=O)N1CCN(c2ncnc3c2[C@H](C)C[C@H]3O)CC1)c1ccc(Cl)cc1 [Ipatasertib/GDC0068] (max 10 µM),0.0704 GR,0.251 GR,0.309 GR,0.387 GR,0.438 GR,0.611 GR,0.706 GR,0.356 GR,0.654 GR,0.409 GR,0.442 GR,0.066 GR
Nc1ccc(-c2ccc3ncc4ccc(=O)n(-c5cccc(C(F)(F)F)c5)c4c3c2)cn1 [Torin2] (max 1 µM),-0.817 GR,-0.328 GR,-0.0415 GR,-0.152 GR,-0.0202 GR,0.123 GR,-0.211 GR,-0.342 GR,0.0112 GR,-0.0468 GR,-0.217 GR,-0.0622 GR
Cc1nc(NC(=O)N2CCC[C@H]2C(N)=O)sc1-c1ccnc(C(C)(C)C(F)(F)F)c1 [Alpelisib/BYL719] (max 10 µM),-0.0521 GR,-0.341 GR,0.714 GR,0.344 GR,-0.0068 GR,0.725 GR,0.68 GR,-0.143 GR,0.825 GR,0.608 GR,0.531 GR,-0.151 GR
O=C(CCCCCCC(=O)Nc1ccccc1)NO [Vorinostat] (max 10 µM),-0.487 GR,-0.14 GR,-0.119 GR,-0.0506 GR,-0.318 GR,0.033 GR,-0.285 GR,-0.632 GR,0.318 GR,-0.467 GR,-0.169 GR,-0.248 GR
O=C(c1cc(Cc2n[nH]c(=O)c3ccccc23)ccc1F)N1CCN(C(=O)C2CC2)CC1 [Olaparib/AZD2281] (max 10 µM),0.199 GR,0.527 GR,0.341 GR,0.36 GR,0.653 GR,0.238 GR,0.425 GR,0.565 GR,0.832 GR,0.0867 GR,0.444 GR,0.63 GR
CNC(=O)c1cccc(-c2ccc3c(N4CCOC[C@@H]4C)nc(N4CCOC[C@@H]4C)nc3n2)c1 [AZD2014] (max 10 µM),-0.585 GR,0.0889 GR,0.23 GR,0.201 GR,-0.24 GR,0.519 GR,0.195 GR,-0.0488 GR,0.147 GR,0.227 GR,0.273 GR,-0.0465 GR
COc1cc(N2CCN(C)CC2)ccc1Nc1ncc2c(n1)N(C)c1ccccc1C(=O)N2CC(F)(F)F [FMF-03-146-1],0.918 GR,0.808 GR,0.706 GR,0.922 GR,0.937 GR,0.89 GR,0.9 GR,0.676 GR,0.95 GR,0.955 GR,0.944 GR,0.947 GR
CCOc1cc2ncc(C#N)c(Nc3ccc(OCc4ccccn4)c(Cl)c3)c2cc1NC(=O)/C=C/CN(C)C [Neratinib/HKI272] (max 3.162 µM),-0.756 GR,-0.0909 GR,-0.383 GR,0.28 GR,-0.532 GR,0.0162 GR,0.457 GR,-0.253 GR,0.103 GR,0.421 GR,-0.161 GR,0.718 GR
Cc1nc(-c2cn3c(n2)-c2ccc(-c4cnn(C(C)(C)C(N)=O)c4)cc2OCC3)n(C(C)C)n1 [Taselisib/GDC0032] (max 10 µM),-0.636 GR,-0.363 GR,0.0046 GR,-0.413 GR,-0.478 GR,0.243 GR,0.0628 GR,-0.207 GR,0.074 GR,-0.0769 GR,-0.0179 GR,-0.143 GR
COc1ccc2c(c1)[C@]1(C[C@H]1c1ccc3c(/C=C/c4ccc(CN5C[C@@H](C)O[C@@H](C)C5)cc4)n[nH]c3c1)C(=O)N2,-0.135 GR,-0.209 GR,-0.38 GR,0.0084 GR,0.174 GR,-0.226 GR,-0.403 GR,-0.0682 GR,0.0038 GR,-0.485 GR,-0.103 GR,0.146 GR
C=CCn1c(=O)c2cnc(Nc3ccc(N4CCN(C)CC4)cc3)nc2n1-c1cccc(C(C)(C)O)n1 [AZD1775] (max 10 µM),-0.598 GR,-0.416 GR,-0.492 GR,-0.188 GR,-0.501 GR,-0.26 GR,-0.492 GR,-0.561 GR,-0.21 GR,-0.729 GR,-0.394 GR,-0.425 GR

# From the supplement of paper PMC9663587
